Experimental data published in ChEMBL document CHEMBL5230104, “Systemic review on B-RafV600E mutation as potential therapeutic target for the treatment of cancer” (Eur J Med Chem, 2020).

Legend:
[1] = molecular target: T1, Serine/threonine-protein kinase B-raf (Homo sapiens, UniProt P15056, V600E); assay: Inhibition of B-Raf V600E mutant (unknown origin)
Target sequence in this assay (P15056 whole entry V600E): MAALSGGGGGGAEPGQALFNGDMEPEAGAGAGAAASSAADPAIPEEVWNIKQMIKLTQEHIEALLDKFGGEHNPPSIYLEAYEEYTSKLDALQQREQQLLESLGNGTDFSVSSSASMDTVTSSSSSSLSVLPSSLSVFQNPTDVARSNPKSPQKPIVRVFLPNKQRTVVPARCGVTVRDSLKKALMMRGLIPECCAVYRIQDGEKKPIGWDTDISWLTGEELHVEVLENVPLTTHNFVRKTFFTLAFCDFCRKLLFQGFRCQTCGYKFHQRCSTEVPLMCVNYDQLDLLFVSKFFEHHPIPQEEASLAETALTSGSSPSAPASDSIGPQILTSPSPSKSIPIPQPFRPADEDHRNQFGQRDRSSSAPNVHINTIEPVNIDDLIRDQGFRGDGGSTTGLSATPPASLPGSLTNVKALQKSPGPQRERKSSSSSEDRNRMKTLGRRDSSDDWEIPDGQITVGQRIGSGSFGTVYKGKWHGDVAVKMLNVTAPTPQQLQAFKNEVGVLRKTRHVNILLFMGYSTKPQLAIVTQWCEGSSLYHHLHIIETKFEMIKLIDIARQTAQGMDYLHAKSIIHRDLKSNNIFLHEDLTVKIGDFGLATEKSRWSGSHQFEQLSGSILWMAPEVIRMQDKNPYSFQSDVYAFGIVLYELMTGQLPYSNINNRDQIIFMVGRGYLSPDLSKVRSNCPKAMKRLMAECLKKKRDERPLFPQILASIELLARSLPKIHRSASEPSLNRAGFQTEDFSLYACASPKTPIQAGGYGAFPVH

A549 [2] = assay: Antiproliferative activity against human A549 cells assessed as cell growth inhibition; type: functional, cell-based
[3] = molecular target: T1, Serine/threonine-protein kinase B-raf; assay: Inhibition of B-Raf V600E mutant (unknown origin) by hotspot kinase assay
Target sequence in this assay (P15056 2-766 V600E limits assumed): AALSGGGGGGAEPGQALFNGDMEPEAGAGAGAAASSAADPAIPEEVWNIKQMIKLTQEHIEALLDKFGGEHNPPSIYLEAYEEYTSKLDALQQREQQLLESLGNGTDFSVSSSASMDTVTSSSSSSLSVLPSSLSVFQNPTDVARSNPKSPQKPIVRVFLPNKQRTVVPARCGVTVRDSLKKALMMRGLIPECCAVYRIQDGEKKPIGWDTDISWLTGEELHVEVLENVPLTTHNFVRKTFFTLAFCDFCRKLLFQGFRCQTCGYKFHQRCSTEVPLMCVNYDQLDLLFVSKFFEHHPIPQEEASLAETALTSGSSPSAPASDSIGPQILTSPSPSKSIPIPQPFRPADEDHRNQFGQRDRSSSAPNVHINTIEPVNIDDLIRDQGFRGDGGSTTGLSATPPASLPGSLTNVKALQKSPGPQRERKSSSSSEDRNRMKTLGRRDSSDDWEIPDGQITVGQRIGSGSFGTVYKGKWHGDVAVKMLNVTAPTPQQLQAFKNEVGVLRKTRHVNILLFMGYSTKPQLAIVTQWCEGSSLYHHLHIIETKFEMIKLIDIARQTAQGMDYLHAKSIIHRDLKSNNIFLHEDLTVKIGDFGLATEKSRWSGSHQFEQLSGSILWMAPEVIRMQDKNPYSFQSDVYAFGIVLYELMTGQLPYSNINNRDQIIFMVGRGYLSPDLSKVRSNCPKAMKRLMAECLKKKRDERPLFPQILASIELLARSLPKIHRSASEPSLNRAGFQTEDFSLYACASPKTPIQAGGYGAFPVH

A-375 [4] = assay: Antiproliferative activity against human A-375 cells; type: functional, cell-based
SK-MEL-28 [5] = assay: Antiproliferative activity against human SK-MEL-28 cells; type: functional, cell-based
[6] = molecular target: T2, Serine/threonine-protein kinase B-raf (Homo sapiens, UniProt P15056); assay: Inhibition of wild type B-Raf (unknown origin) by hotspot kinase assay
[7] = molecular target: T2, Serine/threonine-protein kinase B-raf; assay: Inhibition of wild type B-Raf (unknown origin)
SK-MEL-5 [8] = assay: Antiproliferative activity against human SK-MEL-5 cells; type: functional, cell-based
SK-MEL-2 [9] = assay: Antiproliferative activity against human SK-MEL-2 cells assessed as inhibition of cell growth; type: functional, cell-based
HepG2 = assay: Antiproliferative activity against human HepG2 cells assessed as inhibition of cell growth; type: functional, cell-based
COLO 205 [10] = assay: Antiproliferative activity against human COLO 205 cells assessed as inhibition of cell growth; type: functional, cell-based
A-375 [11] = assay: Antiproliferative activity against human A-375 cells assessed as inhibition of cell growth; type: functional, cell-based
K562 [12] = assay: Anticancer activity against human K562 cells; type: functional, cell-based
HCT-116 = assay: Anticancer activity against human HCT-116 cells; type: functional, cell-based
MV4-11 = assay: Anticancer activity against human MV4-11 cells; type: functional, cell-based
SK-MEL-2 [13] = assay: Anticancer activity against human SK-MEL-2 cells; type: functional, cell-based
A549 [14] = assay: Anticancer activity against human A549 cells; type: functional, cell-based
SW1417 = assay: Antiproliferative activity against human SW1417 cells incubated for 72 hrs by celltiter glo assay; type: functional, cell-based; conditions: SW1417, 72 h
A-375 [15] = assay: Antiproliferative activity against human A-375 cells incubated for 72 hrs by celltiter glo assay; type: functional, cell-based; conditions: A-375, 72 h
RKO = assay: Antiproliferative activity against human RKO cells incubated for 72 hrs by celltiter glo assay; type: functional, cell-based
COLO 205 [16] = assay: Antiproliferative activity against human COLO 205 cells incubated for 72 hrs by celltiter glo assay; type: functional, cell-based; conditions: COLO 205, 72 h
WM-115 = assay: Antiproliferative activity against human WM-115 cells incubated for 72 hrs by celltiter glo assay; type: functional, cell-based; conditions: WM-115, 72 h
SK-MEL-5 [17] = assay: Antiproliferative activity against human SK-MEL-5 cells assessed as reduction in cell viability; type: functional, cell-based
U-251 = assay: Antiproliferative activity against human U-251 cells assessed as reduction in cell viability; type: functional, cell-based
UO-31 = assay: Antiproliferative activity against human UO-31 cells assessed as reduction in cell viability; type: functional, cell-based
IGROV-1 = assay: Antiproliferative activity against human IGROV-1 cells assessed as reduction in cell viability; type: functional, cell-based
T47D = assay: Antiproliferative activity against human T47D cells assessed as reduction in cell viability; type: functional, cell-based
[18] = molecular target: T1, Serine/threonine-protein kinase B-raf; assay: Inhibition of B-Raf V600E mutant (unknown origin) by radiometric protein kinase-reaction biology assay
Target sequence in this assay (P15056 2-766 V600E limits assumed): as above

K562 [19] = assay: Antiproliferative activity against human K562 cells assessed as reduction in cell viability; type: functional, cell-based
[20] = molecular target: T2, Serine/threonine-protein kinase B-raf; assay: Inhibition of wild type B-Raf (unknown origin) by radiometric protein kinase-reaction biology assay
PC-3 = assay: Antiproliferative activity against human PC-3 cells assessed as reduction in cell viability; type: functional, cell-based
NCI-H460 = assay: Antiproliferative activity against human NCI-H460 cells assessed as reduction in cell viability; type: functional, cell-based
SK-MEL-28 [21] = assay: Antiproliferative activity against human SK-MEL-28 cells assessed as reduction in cell viability; type: functional, cell-based
HT-29 = assay: Antiproliferative activity against human HT-29 cells assessed as reduction in cell viability; type: functional, cell-based
A-375 [22] = assay: Antiproliferative activity against human A-375 cells assessed as reduction in cell viability; type: functional, cell-based
RPMI-8226 = assay: Antiproliferative activity against human RPMI-8226 cells; type: functional, cell-based
K562 [23] = assay: Antiproliferative activity against human K562 cells; type: functional, cell-based
MDA-MB-468 = assay: Antiproliferative activity against human MDA-MB-468 cells; type: functional, cell-based
[24] = molecular target: T1, Serine/threonine-protein kinase B-raf; assay: Binding affinity to B-Raf V600E mutant (unknown origin)
Target sequence in this assay (P15056 2-766 V600E limits assumed): as above

[25] = Antiproliferative activity against human WM1361 cells assessed as cell growth inhibition; type: functional, cell-based
A-375 [26] = assay: Antiproliferative activity against human A-375 cells assessed as cell growth inhibition; type: functional, cell-based
[27] = Inhibition of full length GST tagged mouse B-Raf V600E mutant incubated for 1 hr
A-375 [28] = assay: Antiproliferative activity against human A-375 cells measured after 48 hrs by MTT assay; type: functional, cell-based; conditions: A-375, 48 h
WM 266-4 = assay: Antiproliferative activity against human WM266-4 cells measured after 48 hrs by MTT assay; type: functional, cell-based; conditions: WM 266-4, 48 h
[29] = Antiproliferative activity against human WM1361 cells measured after 48 hrs by MTT assay; type: functional, cell-based; conditions: WM1361, 48 h
[30] = Inhibition of full length GST tagged mouse B-Raf V600E mutant preincubated for 1 hr and measured after 25 mins in presence of ATP
A-375 [31] = assay: Antiproliferative activity against human A-375 cells assessed as inhibition of cell viability; type: functional, cell-based

T2 sequence (P15056 whole entry): as the sequence (P15056 whole entry V600E) above, with E600V counted along it

With Cc1ccc(C2=NN=C(NC(=S)Nc3ccc(Cl)cc3)SC2)cc1 the IC50 [1] was 180 nM and the IC50 (A549 [2]) was 320 nM.
COc1cc(-c2nn(-c3ccc(NC(=O)CN4CCOCC4)cc3)cc2-c2ccncc2)ccc1Cl showed an IC50 [3] of 2.98 nM, an IC50 (A-375 [4]) of 1820 nM and an IC50 (SK-MEL-28 [5]) of 2210 nM. The IC50 [6] was 536 nM.
Work on O=S(=O)(NCCCNc1cc(-c2cn(-c3ccccc3)nc2-c2cccc(O)c2)ccn1)c1ccc(Cl)cc1 yielded an IC50 [7] of 4870 nM, an IC50 (SK-MEL-5 [8]) of 1270 nM and an IC50 [1] of 1160 nM.
With Cc1ccc(C(=O)Nc2ccc(Cl)c(C(F)(F)F)c2)cc1NC(=O)C1(c2ccnc(NCCN3CCN(C)CC3)n2)CC1 the IC50 (SK-MEL-2 [9]) was 580 nM, the IC50 (HepG2) was 2460 nM and the IC50 [7] was 19.7 nM. The IC50 (COLO 205 [10]) was 1920 nM, the IC50 [1] was 12.6 nM and the IC50 (A-375 [11]) was 1070 nM.
CCCCN1CCN(Oc2cc3nccc(Oc4ccc(NS(=O)(=O)c5cc(F)ccc5F)cc4F)c3cc2OC)CC1 showed an IC50 [7] of 100 nM and an IC50 [1] of 91 nM.
O=C(Nc1ccc(Oc2ccc(C(=O)c3ncc[nH]3)cc2)cc1)Nc1ccc(Cl)c(C(F)(F)F)c1 showed an IC50 (K562 [12]) of 9.13 µM, an IC50 (HCT-116) of 10.9 µM and an IC50 (MV4-11) of 380 nM. The IC50 [7] was 134 nM, the IC50 (SK-MEL-2 [13]) was 5.4 µM and the IC50 [1] was 86 nM. It also gave an IC50 (A549 [14]) of 9.11 µM.
CC(=O)Nc1cc(-c2sc(C3CCN(C4CC4)CC3)nc2-c2cccc(NS(=O)(=O)c3cc(F)ccc3F)c2F)ccn1 gave an IC50 (SW1417) of 208 nM, an IC50 (A-375 [15]) of 3 nM and an IC50 (RKO) of 2280 nM. For the same compound, the IC50 (COLO 205 [16]) was 5 nM and the IC50 (WM-115) was 148 nM.
Work on O=S(=O)(NCCCNc1nccc(-c2c(-c3cccc(F)c3)nc3occn23)n1)c1ccccc1 yielded an IC50 (SK-MEL-5 [17]) of 28.4 µM, an IC50 (U-251) of 7.38 µM and an IC50 (UO-31) of 39.8 µM. It also gave an IC50 (IGROV-1) of 40.2 µM, an IC50 (T47D) of 53.6 µM and an IC50 [18] of 92 nM. The IC50 (K562 [19]) was 56.3 µM, the IC50 [20] was 172 nM and the IC50 (PC-3) was 38.9 µM. It also gave an IC50 (NCI-H460) of 18.5 µM, an IC50 (SK-MEL-28 [21]) of 11.2 µM and an IC50 (HT-29) of 51.8 µM. It also gave an IC50 (A-375 [22]) of 9.81 µM.
With COc1cccc(-c2nn(-c3ccccc3)cc2-c2ccncc2)c1 the IC50 (RPMI-8226) was 1710 nM, the IC50 (K562 [23]) was 3.42 µM and the IC50 (MDA-MB-468) was 6.7 µM. It also gave an IC50 [24] of 1440 nM.
COc1ccc(-n2cc(NC(=O)c3cccc(NC(=O)Nc4ccc(Cl)c(C(F)(F)F)c4)c3)cn2)cc1 showed an IC50 [25] of 7.12 µM, an IC50 (A-375 [26]) of 390 nM and an IC50 [7] of 220 nM. For the same compound, the IC50 [1] was 35 nM.
Compound Cc1ccc(NC(=S)NNC(=O)CNc2nc(-c3ccccc3)c(-c3ccccc3)s2)cc1 has an IC50 [27] of 1300 nM.
COc1ccc(S(=O)(=O)Nc2cc(-c3ccc(C)cc3)[nH]n2)cc1 showed an IC50 (A-375 [28]) of 2040 nM, an IC50 (WM 266-4) of 1580 nM and an IC50 [29] of 10.1 µM. It also gave an IC50 [30] of 180 nM.
In the case of CC(C)(C)c1cc(NC(=O)Nc2ccc(Oc3ccnc4[nH]c(=O)cnc34)cc2F)n(-c2ccccc2)n1, the IC50 [7] is reported as 100 nM and the IC50 (A-375 [31]) is reported as 12 µM.
